Reference: US12227494B2, “Polymorphisms of HM30181 mesylate” (ATHENEX R&D, LLC, priority 2020, dated 2025)

Experiment: Polymorph screening (slurry, liquid vapor diffusion, cooling, evaporation, anti-solvent, large scale) with crystal type by XRPD
Type: physicochemical
Conditions: for Observations: large scale (200 mg)
Experimental: Slurry-based generation and/or screening for HM30181 mesylate polymorphs was performed by preparing slurries of starting material HM30181 mesylate Type A in a variety of solvents and under a variety of conditions as described below. The resulting solids were analyzed by XRPD and identified for physical state.
Generation and/or screening of HM30181 mesylate polymorphs was also performed by preparing HM30181 mesylate Type A starting material for liquid and solid vapor diffusion as described below. Resulting solids were analyzed by XRPD and identified for physical state. Liquid vapor diffusion of MTBE into NMP solution yielded HM30181 mesylate Type D (see FIG. 21). Liquid vapor diffusion of MEK into NMP or DMA solution yielded HM30181 mesylate Type D (see FIG. 21). […] Liquid vapor diffusion of 2-MeTHF into DMA or DMF solution yielded HM30181 mesylate Type E (see FIG. 22). Liquid vapor diffusion of MTBE into DMA solution yielded HM30181 mesylate Type E, with a few additional diffraction peaks, which Inventors believe are attributable to HM30181 mesylate Type I (see FIGS. 4 to 8). Liquid vapor diffusion of ACN into DMSO solution yielded HM30181 mesylate Type H (see FIG. 23). Liquid vapor diffusion of Acetone, Ethyl Acetate, or isopropyl acetate into DMA solution yielded HM30181 mesylate Type I (see FIG. 24).
Generation and/or screening of HM30181 mesylate polymorphs by cooling was carried out by treating HM30181 mesylate Type A starting material using gradual or rapid (i.e. crash) cooling as described below. The resulting solids were analyzed by XRPD and identified for physical state.
HM30181 mesylate was also subjected to evaporation methods by treating HM30181 mesylate Type A starting material as described below. The resulting solids were analyzed by XRPD and identified for physical state.
Generation and/or screening of HM30181 mesylate polymorphs by treatment with anti-solvents was performed by treating HM30181 mesylate Type A starting material as described below. The resulting solids were analyzed by XRPD and identified for physical state. Anti-solvent studies in DMSO yielded HM30181 mesylate Type C (see FIG. 26). Anti-solvent studies in N,N-dimethylacetamide with methyl t-butyl ether yielded a HM30181 mesylate Type F polymorphism (see FIG. 27). Anti-solvent addition and reverse anti-solvent addition in DMSO/EtOAc, DMA/MIBK, DMA/toluene and NMP/t-BuOH yielded primarily amorphous content and a polymorphism with some similarity to HM30181 mesylate Type J (see FIG. 28). Other anti-solvent studies in DMSO and DMF yielded a HM30181 mesylate Type K polymorphism (or possibly a mixture of types, see FIG. 29). Anti-solvent experiments in DMF/n-propanol and DMA/isopropanol yielded a HM30181 mesylate Type L polymorphism (see FIG. 30). Anti-solvent addition DMF/Toluene and DMA/t-BuOH were mostly amorphous, but also generated HM30181 mesylate Type M (see FIG. 31).
Large scale studies were performed with HM30181 mesylate Type A starting material on a 200 mg scale as described below. Solids were isolated by vacuum filtration. The wet cakes from filtration from DMA, DMF, and NMP slurries were washed with 1 mL to 2 mL methanol to remove solvents. Solids were then vacuum dried at 80° C. overnight.
Screening of polymorphisms of HM30181 mesylate can include preparation of a slurry. Typically, a slurry was prepared by suspending 5 mg to 20 mg of sample in 0.1 mL to 0.5 mL solvent in a 1.5 mL or 3.0 mL glass vial. The suspension a was stirred at target temperature (e.g. 4° C., ambient temperature, 50° C.) at 200 rpm. Solids for X-ray powder diffraction (XRPD) analysis were separated by centrifuging at 14,000 rpm for 5 minutes at ambient temperature. If no solid or gel is obtained, the slurry can be move to a fume hood for evaporation of the solvent.
In some embodiments anti-solvent addition was used. […]

COc1cc2c(cc1OC)CN(CCc1ccc(-n3nnc(-c4cc(OC)c(OC)cc4NC(=O)c4cc(=O)c5ccccc5o4)n3)cc1)CC2.CS(=O)(=O)O [HM30181 mesylate Type A, HM30181 mesylate]
XRPD (wet cake) (Crash Cooling 50° C.-->−20° C., CHCl3 4 mL, API 25.4 mg, Exp. 6007235-17-C10): No solids | XRPD (wet cake) (Crash Cooling 50° C.-->−20° C., DCM 10 mL, API 22.1 mg, Exp. 6007235-17-C13): No solids | XRPD (wet cake) (Crash Cooling 50° C.-->−20° C., DMA 4 mL, API 26.9 mg, Exp. 6007235-17-C15): Amorphous | XRPD (wet cake) (Crash Cooling 50° C.-->−20° C., DMF 4 mL, API 25.1 mg, Exp. 6007235-17-C16): Amorphous | XRPD (wet cake) (Crash Cooling 50° C.-->−20° C., EtOH 20 mL, API 5 mg, Exp. 6007235-17-C11): No solids | XRPD (wet cake) (Crash Cooling 50° C.-->−20° C., MeOH 10 mL, API 22.9 mg, Exp. 6007235-17-C9): No solids | XRPD (wet cake) (Crash Cooling 50° C.-->−20° C., NMP 4 mL, API 26.2 mg, Exp. 6007235-17-C14): Amorphous | XRPD (wet cake) (Crash cooling 50° C.-->−20° C., ACN 10 mL, API 12.6 mg, Exp. 6007235-17-C12): Type C | XRPD (wet cake) (Slow Cooling 50° C.-->4° C., ACN 10 mL, API 12.6 mg, Exp. 6007235-17-C4): Type C | XRPD (wet cake) (Slow Cooling 50° C.-->4° C., DMF 4 mL, API 25.1 mg, Exp. 6007235-17-C8): No solids | XRPD (wet cake) (Slow Cooling 50° C.-->4° C., EtOH 20 mL, API 5 mg, Exp. 6007235-17-C3): No solids | XRPD (wet cake) (Slow Cooling 50° C.-->4° C., MeOH 20 mL, API 24.7 mg, Exp. 6007235-17-C1): No solids | XRPD (wet cake) (Slow Cooling 50° C.-->4° C., NMP 4 mL, API 20.9 mg, Exp. 6007235-17-C6): No solids | Identification (anti-solvent (Table 13), solvent CHCl3, anti-solvent EtOH 10 mL, NB 6004273-06-A102): Type A | Identification (anti-solvent (Table 13), solvent CHCl3, anti-solvent MTBE 10 mL, NB 6004273-06-A103): Type A | Identification (anti-solvent (Table 13), solvent CHCl3, anti-solvent n-Heptane 10 mL, NB 6004273-06-A104): Type A | Identification (anti-solvent (Table 13), solvent DMSO, anti-solvent Toluene 10 mL, NB 6004273-06-A106): Amorphous | Identification (anti-solvent, solvent CHCl3, anti-solvent 2-MeTHF 10 mL, NB 6004273-06-A27): Type A | Identification (anti-solvent, solvent CHCl3, anti-solvent ACN 10 mL, NB 6004273-06-A30): Type A | Identification (anti-solvent, solvent CHCl3, anti-solvent Acetone 10 mL, NB 6004273-06-A22): Type A | Identification (anti-solvent, solvent CHCl3, anti-solvent CPME 10 mL, NB 6004273-06-A42): Type A | Identification (anti-solvent, solvent CHCl3, anti-solvent Cyclohexane 10 mL, NB 6004273-06-A35): Type A | Identification (anti-solvent, solvent CHCl3, anti-solvent DCM 10 mL, NB 6004273-06-A31): Type A | Identification (anti-solvent, solvent CHCl3, anti-solvent EtOAc 10 mL, NB 6004273-06-A24): Type A | Identification (anti-solvent, solvent CHCl3, anti-solvent Ethanol 10 mL, NB 6004273-06-A20): Type A | Identification (anti-solvent, solvent CHCl3, anti-solvent Ethyl formate 10 mL, NB 6004273-06-A40): Type A | Identification (anti-solvent, solvent CHCl3, anti-solvent IPA 10 mL, NB 6004273-06-A21): Type A | Identification (anti-solvent, solvent CHCl3, anti-solvent MEK 10 mL, NB 6004273-06-A36): Type A | Identification (anti-solvent, solvent CHCl3, anti-solvent MIBK 10 mL, NB 6004273-06-A23): Type A | Identification (anti-solvent, solvent CHCl3, anti-solvent MTBE 10 mL, NB 6004273-06-A29): Type A | Identification (anti-solvent, solvent CHCl3, anti-solvent MeOAc 10 mL, NB 6004273-06-A34): Type A | Identification (anti-solvent, solvent CHCl3, anti-solvent THF 10 mL, NB 6004273-06-A26): Type A | Identification (anti-solvent, solvent CHCl3, anti-solvent Toluene 10 mL, NB 6004273-06-A32): Type A | Identification (anti-solvent, solvent CHCl3, anti-solvent iBuOAc 10 mL, NB 6004273-06-A41): Type A | Identification (anti-solvent, solvent CHCl3, anti-solvent iPrOAc 10 mL, NB 6004273-06-A25): Type A | Identification (anti-solvent, solvent CHCl3, anti-solvent n-Heptane 10 mL, NB 6004273-06-A33): Type A | Identification (anti-solvent, solvent CHCl3, anti-solvent n-Propanol 10 mL, NB 6004273-06-A38): Type A | Identification (anti-solvent, solvent CHCl3, anti-solvent n-Propyl acetate 10 mL, NB 6004273-06-A39): Type A | Identification (anti-solvent, solvent CHCl3, anti-solvent t-Butanol 10 mL, NB 6004273-06-A37): Type A | Identification (anti-solvent, solvent DMA, anti-solvent t-Butanol 20 mL, NB 6004273-06-A97): Type M | Identification (anti-solvent, solvent DMF, anti-solvent EtOAc 10 mL, NB 6004273-06-A47): Type A | Identification (anti-solvent, solvent DMF, anti-solvent EtOH 20 mL, NB 6004273-06-A43): Amorphous | Identification (anti-solvent, solvent DMF, anti-solvent IPA 10 mL, NB 6004273-06-A44): Type K | Identification (anti-solvent, solvent DMF, anti-solvent MIBK 10 mL, NB 6004273-06-A46): Amorphous | Identification (anti-solvent, solvent DMF, anti-solvent MTBE 10 mL, NB 6004273-06-A52): Type A | Identification (anti-solvent, solvent DMF, anti-solvent Toluene 10 mL, NB 6004273-06-A56): Type M | Identification (anti-solvent, solvent DMF, anti-solvent n-Propyl acetate 10 mL, NB 6004273-06-A61): Type A | Identification (anti-solvent, solvent DMSO, anti-solvent 2-MeTHF 10 mL, NB 6004273-06-A8): Amorphous | Identification (anti-solvent, solvent DMSO, anti-solvent ACN 20 mL, NB 6004273-06-A11): Type C | Identification (anti-solvent, solvent DMSO, anti-solvent Acetone 10 mL, NB 6004273-06-A3): Type K | Identification (anti-solvent, solvent DMSO, anti-solvent CHCl3 20 mL, NB 6004273-06-A13): Type K | Identification (anti-solvent, solvent DMSO, anti-solvent EtOH 20 mL, NB 6004273-06-A1): Type K | Identification (anti-solvent, solvent DMSO, anti-solvent MIBK 10 mL, NB 6004273-06-A4): Type K | Identification (anti-solvent, solvent DMSO, anti-solvent MTBE 20 mL, NB 6004273-06-A10): Amorphous | Identification (anti-solvent, solvent DMSO, anti-solvent Toluene 10 mL, NB 6004273-06-A14): Amorphous | Identification (anti-solvent, solvent DMSO, anti-solvent n-Propanol 10 mL, NB 6004273-06-A18): Type K | Identification (anti-solvent, solvent DMSO, anti-solvent n-Propyl acetate 10 mL, NB 6004273-06-A19): Type K | Identification (anti-solvent, solvent DMSO, anti-solvent t-Butanol 10 mL, NB 6004273-06-A17): Type K | Identification (anti-solvent, solvent NMP, anti-solvent 1,4-Dioxane 20 mL, NB 6004273-06-A70): Type A | Identification (anti-solvent, solvent NMP, anti-solvent MEK 20 mL, NB 6004273-06-A77): Amorphous | Observations (Anti-solvent addition, DMA 20 mL, 5 mg/mL, anti-solvent t-BuOH 200 mL, Desired Type M, NB 6004273-10-M): Amorphous | Observations (Anti-solvent addition, DMF 20 mL, 5 mg/mL, anti-solvent Toluene 300 mL, Desired Type M, NB 6004273-10-M1): Amorphous | Observations (Anti-solvent addition, DMF 20 mL, 5 mg/mL, anti-solvent n-propanol 200 mL, Desired Type L, NB 6004273-10-L): Amorphous | Observations (Anti-solvent addition, DMSO 10 mL, 60 mg/mL, anti-solvent MIBK 200 mL, Desired Type K, NB 6004273-10-K): Amorphous | Observations (Slurry at 50° C., DMF 0.2 mL, 576 mg/mL, Desired Type G, NB 6004273-10-G): Type F | Observations (Slurry at 100° C. (for 2 days), DMF 0.2 mL, 595 mg/mL, Desired Type G, NB 6004273-10-F-100C): Type F | Observations (Slurry at 150° C. (for 5 d), DMF 0.2 mL, 595 mg/mL, Desired Type G, NB 6004273-10-F-150C): Decomposition | Observations (Slurry at ambient temperature, DMA 0.2 mL, 576 mg/mL, Desired Type E, NB 6004273-10-E): Type E | Observations (Slurry at ambient temperature, DMF 0.2 mL, 595 mg/mL, Desired Type F, NB 6004273-10-F): Type A | Observations (Slurry at ambient temperature, MeCN 0.2 mL, 545 mg/mL, Desired Type C, NB 6004273-10-C): Type C | Observations (Slurry at ambient temperature, MeOH 0.2 mL, 480 mg/mL, Desired Type B, NB 6004273-10-B): Type N | Observations (Slurry at ambient temperature, NMP 0.2 mL, 550 mg/mL, Desired Type D, NB 6004273-10-D): Amorphous
